Assays:
[1] = molecular target: Prostaglandin G/H synthase 1 (Homo sapiens, UniProt P23219)
[2] = Ulcerogenic activity in Albino mouse assessed as histopathological change in stomach by H and E staining based analysis; type: toxicity; details: in vivo
Rattus norvegicus [3] = assay: Anti-inflammatory activity in carrageen-induced paw edema rat model assessed as inhibition of edema measured after 3 hrs relative to control; type: functional
Rattus norvegicus [4] = assay: Anti-inflammatory activity in carrageen-induced paw edema rat model assessed as change in paw height measured after 3 hrs (reference value: 0.78 +/- 0.08 %); type: functional
Rattus norvegicus [5] = assay: Anti-inflammatory activity in carrageen-induced paw edema rat model assessed as change in paw height measured after 2 hrs (reference value: 0.64 +/- 0.05 %); type: functional
Mus musculus [6] = species: Mus musculus; assay: Analgesic activity in mouse assessed reduction in number of acetic acid-induced writhing measured for 20 mins (reference value: 40 +/- 2.9); type: functional
Rattus norvegicus [7] = assay: Anti-inflammatory activity in carrageen-induced paw edema rat model assessed as change in paw height measured immediately (reference value: 0.56 +/- 0.05 %); type: functional
Mus musculus [8] = species: Mus musculus; assay: Analgesic activity in mouse assessed protection against acetic acid-induced writhing measured for 20 mins relative to control; type: functional
Rattus norvegicus [9] = assay: Anti-inflammatory activity in carrageen-induced paw edema rat model assessed as change in paw height measured after 1 hr (reference value: 0.68 +/- 0.04 %); type: functional
[10] = Ulcerogenic activity in Albino mouse assessed as inflammation in stomach by H and E staining based analysis; type: toxicity; details: in vivo
Carbonic anhydrase 1 = Carbonic anhydrase 1 (Homo sapiens, UniProt P00915); assay: Binding affinity to human CA1 assessed as inhibition constant by stopped flow kinetic assay
Carbonic anhydrase 1, sequence (P00915 whole entry): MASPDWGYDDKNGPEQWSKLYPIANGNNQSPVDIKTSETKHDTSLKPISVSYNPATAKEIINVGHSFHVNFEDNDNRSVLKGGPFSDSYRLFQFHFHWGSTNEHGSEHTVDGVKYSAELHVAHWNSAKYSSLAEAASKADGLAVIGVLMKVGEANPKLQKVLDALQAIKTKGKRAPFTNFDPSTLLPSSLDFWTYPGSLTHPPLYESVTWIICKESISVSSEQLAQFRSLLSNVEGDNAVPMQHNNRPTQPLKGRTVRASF

Carbonic anhydrase 12 = Carbonic anhydrase 12 (Homo sapiens, UniProt O43570); assay: Binding affinity to human CA12 assessed as inhibition constant by stopped flow kinetic assay
Carbonic anhydrase 12, sequence (O43570 whole entry): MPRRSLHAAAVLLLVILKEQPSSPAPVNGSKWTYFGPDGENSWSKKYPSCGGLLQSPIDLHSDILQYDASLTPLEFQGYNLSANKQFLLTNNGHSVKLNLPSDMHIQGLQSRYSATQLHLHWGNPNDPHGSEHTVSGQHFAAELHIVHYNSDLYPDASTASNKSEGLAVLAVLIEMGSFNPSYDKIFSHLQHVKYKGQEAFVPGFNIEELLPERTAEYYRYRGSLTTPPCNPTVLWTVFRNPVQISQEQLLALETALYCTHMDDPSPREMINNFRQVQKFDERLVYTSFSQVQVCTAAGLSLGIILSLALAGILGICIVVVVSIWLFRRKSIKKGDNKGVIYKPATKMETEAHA

Carbonic anhydrase 2 = Carbonic anhydrase 2 (Homo sapiens, UniProt P00918); assay: Binding affinity to human CA2 assessed as inhibition constant by stopped flow kinetic assay
Carbonic anhydrase 9 = Carbonic anhydrase 9 (Homo sapiens, UniProt Q16790); assay: Binding affinity to human CA9 assessed as inhibition constant by stopped flow kinetic assay

Prostaglandin G/H synthase 1, sequence (P23219 whole entry): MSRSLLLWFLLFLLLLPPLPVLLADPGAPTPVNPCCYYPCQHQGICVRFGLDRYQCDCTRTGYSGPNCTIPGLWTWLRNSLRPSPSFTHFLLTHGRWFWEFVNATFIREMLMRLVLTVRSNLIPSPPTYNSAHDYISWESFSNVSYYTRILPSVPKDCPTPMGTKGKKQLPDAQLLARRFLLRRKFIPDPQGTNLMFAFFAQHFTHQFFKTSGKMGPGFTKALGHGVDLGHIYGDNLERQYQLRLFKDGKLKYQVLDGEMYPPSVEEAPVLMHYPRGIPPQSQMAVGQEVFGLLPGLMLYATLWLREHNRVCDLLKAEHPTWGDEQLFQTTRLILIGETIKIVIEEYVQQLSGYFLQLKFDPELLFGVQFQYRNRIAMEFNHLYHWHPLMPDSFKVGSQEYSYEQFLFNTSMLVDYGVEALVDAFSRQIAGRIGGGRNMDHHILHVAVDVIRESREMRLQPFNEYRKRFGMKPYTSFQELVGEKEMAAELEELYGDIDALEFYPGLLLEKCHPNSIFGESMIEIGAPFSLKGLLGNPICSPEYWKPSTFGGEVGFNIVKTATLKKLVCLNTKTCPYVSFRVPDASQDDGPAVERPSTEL

Question: With `Nc1c(C(=O)N/N=C/c2cccc([N+](=O)[O-])c2)cnn1-c1ccc(S(N)(=O)=O)cc1` as the compound, how does the IC50 [1] read?
Answer: 5 µM

Question: Which IC50 [1] does the source give for `Nc1c(C(=O)N/N=C/c2ccccc2)cnn1-c1ccc(S(N)(=O)=O)cc1` here?
Answer: 10.4 µM

Question: What about the Activity [2] of the same compound?
Answer: Non-Toxic

Question: Which results are given for `Cc1ccc(-c2cc(C(F)(F)F)nn2-c2ccc(S(N)(=O)=O)cc2)cc1` [CELECOXIB]?
Answer: inhibition (INH) (Rattus norvegicus [3]): 38.5%; Activity (Rattus norvegicus [4]): 0.48%; Activity (Rattus norvegicus [5]): 0.52%; Activity [2]: Non-Toxic; Activity (Mus musculus [6]): 16; Activity (Rattus norvegicus [7]): 0.5%; Activity (Mus musculus [8]): 60%; Activity (Rattus norvegicus [9]): 0.44%

Question: With `Nc1c(C(=O)N/N=C/c2ccc(Cl)cc2)cnn1-c1ccc(S(N)(=O)=O)cc1` as the compound, how does the IC50 [1] read?
Answer: 8 µM

Question: What does the source list for `O=C(O)Cc1ccccc1Nc1c(Cl)cccc1Cl` [DICLOFENAC]?
Answer: inhibition (INH) (Rattus norvegicus [3]): 59%; Activity (Rattus norvegicus [4]): 0.32%; Activity [10]: Toxic; Activity (Rattus norvegicus [5]): 0.32%; Activity [2]: Toxic; Activity (Mus musculus [6]): 12; Activity (Rattus norvegicus [7]): 0.52%; Activity (Mus musculus [8]): 70%; Activity (Rattus norvegicus [9]): 0.28%

Question: For `Nc1c(C(=O)N/N=C/c2ccc([N+](=O)[O-])cc2)cnn1-c1ccc(S(N)(=O)=O)cc1`, which IC50 [1] is on record?
Answer: 5 µM

Question: Which “inhibition (INH)” value (Rattus norvegicus [3]) does the source give for `Nc1c(C(=O)N/N=C/c2ccc(O)cc2)cnn1-c1ccc(S(N)(=O)=O)cc1` here?
Answer: 31%

Question: What about the Activity (Rattus norvegicus [4]) of the same compound?
Answer: 0.54%

Question: What about the Ki (Carbonic anhydrase 1) of the same compound?
Answer: 0.134 µM

Question: And the Activity (Rattus norvegicus [5])?
Answer: 0.62%

Question: What about the IC50 [1] of the same compound?
Answer: 12.5 µM

Question: And the Activity [2]?
Answer: Non-Toxic

Question: And the Ki (Carbonic anhydrase 12)?
Answer: 0.0058 µM

Question: What about the Activity (Mus musculus [6]) of the same compound?
Answer: 19

Question: And the Ki (Carbonic anhydrase 2)?
Answer: 0.0269 µM

Question: And the Activity (Rattus norvegicus [7])?
Answer: 0.48%

Question: What about the Ki (Carbonic anhydrase 9) of the same compound?
Answer: 0.0489 µM

Question: And the Activity (Mus musculus [8])?
Answer: 52.5%

Question: And the Activity (Rattus norvegicus [9])?
Answer: 0.52%

Question: With `Nc1c(C(=O)N/N=C/c2cccs2)cnn1-c1ccc(S(N)(=O)=O)cc1` as the compound, how does the IC50 [1] read?
Answer: 9.5 µM

Question: Which IC50 [1] does the source give for `Nc1c(C(=O)N/N=C/c2ccccc2[N+](=O)[O-])cnn1-c1ccc(S(N)(=O)=O)cc1` here?
Answer: 4.8 µM

Question: With `CN(C)c1ccc(/C=N/NC(=O)c2cnn(-c3ccc(S(N)(=O)=O)cc3)c2N)cc1` as the compound, how does the IC50 [1] read?
Answer: 7 µM

Question: Which IC50 [1] does the source give for `Nc1c(C(=O)N/N=C/c2ccccc2Cl)cnn1-c1ccc(S(N)(=O)=O)cc1` here?
Answer: 10.5 µM

Question: For `COc1ccc(/C=N/NC(=O)c2cnn(-c3ccc(S(N)(=O)=O)cc3)c2N)cc1`, which IC50 [1] is on record?
Answer: 6 µM

— ChEMBL document CHEMBL5385885, “4-(5-Amino-pyrazol-1-yl)benzenesulfonamide derivatives as novel multi-target anti-inflammatory agents endowed with inhibitory activity against COX-2, 5-LOX and carbonic anhydrase: Design, synthesis, and biological assessments” (Eur J Med Chem, 2023)
